# Measurements reported in PubChem BioAssay (NCI).
#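 Results reflect a 48-hour exposure of cells in 96-well plates to compound at five concentrations. TGI is the concentration that stops growth completely.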
# Columns and labels:
# Assay in all cases: DTP human tumour cell line panel, 48 h
# 786-0 renal = system: 786-0 renal
# A498 renal = system: A498 renal
# A549 NSCLC = system: A549 NSCLC
# ACHN renal = system: ACHN renal
# BT-549 breast = system: BT-549 breast
# CAKI-1 renal = system: CAKI-1 renal
# CCRF-CEM leukemia = system: CCRF-CEM leukemia
# COLO 205 colon = system: COLO 205 colon
# DU-145 prostate = system: DU-145 prostate
# EKVX NSCLC = system: EKVX NSCLC
# HCC-2998 colon = system: HCC-2998 colon
# HCT-116 colon = system: HCT-116 colon
# HCT-15 colon = system: HCT-15 colon
# HL-60(TB) leukemia = system: HL-60(TB) leukemia
# HOP-62 NSCLC = system: HOP-62 NSCLC
# HOP-92 NSCLC = system: HOP-92 NSCLC
# HS 578T breast = system: HS 578T breast
# HT29 colon = system: HT29 colon
# IGROV1 ovarian = system: IGROV1 ovarian
# K-562 leukemia = system: K-562 leukemia
# KM12 colon = system: KM12 colon
# LOX IMVI melanoma = system: LOX IMVI melanoma
# M14 melanoma = system: M14 melanoma
# MALME-3M melanoma = system: MALME-3M melanoma
# MCF7 breast = system: MCF7 breast
# MDA-MB-231 breast = system: MDA-MB-231 breast
# MDA-MB-435 = system: MDA-MB-435
# MDA-N = system: MDA-N
# MOLT-4 leukemia = system: MOLT-4 leukemia
# NCI-H226 lung = system: NCI-H226 lung
# NCI-H23 lung = system: NCI-H23 lung
# NCI-H522 lung = system: NCI-H522 lung
# NCI/ADR-RES ovarian = system: NCI/ADR-RES ovarian
# OVCAR-3 ovarian = system: OVCAR-3 ovarian
# OVCAR-4 ovarian = system: OVCAR-4 ovarian
# OVCAR-5 ovarian = system: OVCAR-5 ovarian
# OVCAR-8 ovarian = system: OVCAR-8 ovarian
# PC-3 prostate = system: PC-3 prostate
# RPMI-8226 leukemia = system: RPMI-8226 leukemia
# RXF 393 renal = system: RXF 393 renal
# SF-268 CNS = system: SF-268 CNS
# SF-295 CNS = system: SF-295 CNS
# SF-539 CNS = system: SF-539 CNS
# SK-MEL-2 melanoma = system: SK-MEL-2 melanoma
# SK-MEL-28 melanoma = system: SK-MEL-28 melanoma
# SK-MEL-5 melanoma = system: SK-MEL-5 melanoma
# SK-OV-3 ovarian = system: SK-OV-3 ovarian
# SN12C renal = system: SN12C renal
# SNB-19 CNS = system: SNB-19 CNS
# SR leukemia = system: SR leukemia
# SW-620 colon = system: SW-620 colon
# T-47D breast = system: T-47D breast
# TK-10 renal = system: TK-10 renal
# U251 CNS = system: U251 CNS
# UACC-257 melanoma = system: UACC-257 melanoma
# UACC-62 melanoma = system: UACC-62 melanoma
# UO-31 renal = system: UO-31 renal
# NCI-H460 lung = system: NCI-H460 lung
# SNB-75 CNS = system: SNB-75 CNS
smiles,measurement,setting,value
CCOC(=O)N1N(c2ccccc2)C(=O)C1(c1ccccc1)c1ccccc1,TGI,786-0 renal,> 100 µM
same,TGI,A498 renal,> 100 µM
same,TGI,A549 NSCLC,> 100 µM
same,TGI,ACHN renal,> 100 µM
same,TGI,BT-549 breast,> 100 µM
same,TGI,CAKI-1 renal,> 100 µM
same,TGI,CCRF-CEM leukemia,> 100 µM
same,TGI,COLO 205 colon,> 100 µM
same,TGI,DU-145 prostate,> 100 µM
same,TGI,EKVX NSCLC,> 100 µM
same,TGI,HCC-2998 colon,> 100 µM
same,TGI,HCT-116 colon,> 100 µM
same,TGI,HCT-15 colon,> 100 µM
same,TGI,HL-60(TB) leukemia,> 100 µM
same,TGI,HOP-62 NSCLC,46 µM
same,TGI,HOP-92 NSCLC,> 100 µM
same,TGI,HS 578T breast,> 100 µM
same,TGI,HT29 colon,> 100 µM
same,TGI,IGROV1 ovarian,> 100 µM
same,TGI,K-562 leukemia,> 100 µM
same,TGI,KM12 colon,> 100 µM
same,TGI,LOX IMVI melanoma,> 100 µM
same,TGI,M14 melanoma,> 100 µM
same,TGI,MALME-3M melanoma,> 100 µM
same,TGI,MCF7 breast,> 100 µM
same,TGI,MDA-MB-231 breast,> 100 µM
same,TGI,MDA-MB-435,> 100 µM
same,TGI,MDA-N,> 100 µM
same,TGI,MOLT-4 leukemia,> 100 µM
same,TGI,NCI-H226 lung,> 100 µM
same,TGI,NCI-H23 lung,> 100 µM
same,TGI,NCI-H522 lung,> 100 µM
same,TGI,NCI/ADR-RES ovarian,> 100 µM
same,TGI,OVCAR-3 ovarian,> 100 µM
same,TGI,OVCAR-4 ovarian,> 100 µM
same,TGI,OVCAR-5 ovarian,> 100 µM
same,TGI,OVCAR-8 ovarian,> 100 µM
same,TGI,PC-3 prostate,> 100 µM
same,TGI,RPMI-8226 leukemia,83.5 µM
same,TGI,RXF 393 renal,> 100 µM
same,TGI,SF-268 CNS,> 100 µM
same,TGI,SF-295 CNS,> 100 µM
same,TGI,SF-539 CNS,> 100 µM
same,TGI,SK-MEL-2 melanoma,70.5 µM
same,TGI,SK-MEL-28 melanoma,> 100 µM
same,TGI,SK-MEL-5 melanoma,> 100 µM
same,TGI,SK-OV-3 ovarian,> 100 µM
same,TGI,SN12C renal,> 100 µM
same,TGI,SNB-19 CNS,> 100 µM
same,TGI,SR leukemia,> 100 µM
same,TGI,SW-620 colon,> 100 µM
same,TGI,T-47D breast,> 100 µM
same,TGI,TK-10 renal,> 100 µM
same,TGI,U251 CNS,> 100 µM
same,TGI,UACC-257 melanoma,> 100 µM
same,TGI,UACC-62 melanoma,> 100 µM
same,TGI,UO-31 renal,> 100 µM
Cc1nc2ccccc2c(=O)n1/N=C/c1ccc(N(C)C)cc1,TGI,786-0 renal,> 100 µM
same,TGI,A498 renal,> 100 µM
same,TGI,A549 NSCLC,> 100 µM
same,TGI,ACHN renal,> 100 µM
same,TGI,BT-549 breast,> 100 µM
same,TGI,CAKI-1 renal,> 100 µM
same,TGI,CCRF-CEM leukemia,> 100 µM
same,TGI,COLO 205 colon,> 100 µM
same,TGI,DU-145 prostate,> 100 µM
same,TGI,EKVX NSCLC,> 100 µM
same,TGI,HCC-2998 colon,> 100 µM
same,TGI,HCT-116 colon,> 100 µM
same,TGI,HCT-15 colon,> 100 µM
same,TGI,HL-60(TB) leukemia,> 100 µM
same,TGI,HOP-62 NSCLC,> 100 µM
same,TGI,HOP-92 NSCLC,> 100 µM
same,TGI,HS 578T breast,54 µM
same,TGI,HT29 colon,> 100 µM
same,TGI,IGROV1 ovarian,> 100 µM
same,TGI,KM12 colon,> 100 µM
same,TGI,LOX IMVI melanoma,> 100 µM
same,TGI,M14 melanoma,> 100 µM
same,TGI,MALME-3M melanoma,> 100 µM
same,TGI,MCF7 breast,> 100 µM
same,TGI,MDA-MB-231 breast,> 100 µM
same,TGI,MDA-MB-435,> 100 µM
same,TGI,MDA-N,> 100 µM
same,TGI,MOLT-4 leukemia,> 100 µM
same,TGI,NCI-H226 lung,> 100 µM
same,TGI,NCI-H23 lung,> 100 µM
same,TGI,NCI-H460 lung,> 100 µM
same,TGI,NCI-H522 lung,> 100 µM
same,TGI,NCI/ADR-RES ovarian,> 100 µM
same,TGI,OVCAR-3 ovarian,> 100 µM
same,TGI,OVCAR-4 ovarian,> 100 µM
same,TGI,OVCAR-5 ovarian,> 100 µM
same,TGI,OVCAR-8 ovarian,> 100 µM
same,TGI,PC-3 prostate,> 100 µM
same,TGI,RPMI-8226 leukemia,> 100 µM
same,TGI,SF-268 CNS,> 100 µM
same,TGI,SF-295 CNS,> 100 µM
same,TGI,SF-539 CNS,> 100 µM
same,TGI,SK-MEL-2 melanoma,> 100 µM
same,TGI,SK-MEL-28 melanoma,> 100 µM
same,TGI,SK-MEL-5 melanoma,> 100 µM
same,TGI,SK-OV-3 ovarian,> 100 µM
same,TGI,SN12C renal,> 100 µM
same,TGI,SNB-19 CNS,> 100 µM
same,TGI,SNB-75 CNS,43.9 µM
same,TGI,SR leukemia,> 100 µM
same,TGI,SW-620 colon,> 100 µM
same,TGI,T-47D breast,> 100 µM
same,TGI,TK-10 renal,> 100 µM
same,TGI,U251 CNS,> 100 µM
same,TGI,UACC-257 melanoma,> 100 µM
same,TGI,UACC-62 melanoma,> 100 µM
